Data set [1] can be described thus: (§1) Mean AUCinfinity of acetylsalicylic acid concentration after administration of Genuine Bayer Aspirin Tablet at fasting condition in human. The class given is ADME, organism-based. Set-up: time infinity, dietary status Fasting, dose 325 mg, dosed compound id 2.46814e+06, dosed compound name Acetylsalicylic acid, regimen Single, route oral, sampling time 24 h, study doses 325/650 mg. To be noted: plasma, po, 325 mg, read-out: AUCinfinity (converted).

Data set [2] is described as follows: (§2) Mean Cmax of acetylsalicylic acid concentration after administration of Genuine Bayer Aspirin Tablet at fasting condition in human. Type of data set: ADME, organism-based. Set-up: dietary status Fasting, dose 325 mg, dosed compound id 2.46814e+06, dosed compound name Acetylsalicylic acid, regimen Single, route oral, sampling time 24 h, study doses 325/650 mg. To be noted: plasma, po, 325 mg.

The nature of data set [3]: (§3) Mean Tmax of acetylsalicylic acid concentration after administration of Genuine Bayer Aspirin Tablet at fasting condition in human. Type of data set: ADME, organism-based. Details: dietary status Fasting, dose 325 mg, dosed compound id 2.46814e+06, dosed compound name Acetylsalicylic acid, regimen Single, route oral, sampling time 24 h, study doses 325/650 mg. To be noted: plasma, po, 325 mg.

Data set [4] in a line: (§4) Mean AUC0-t of acetylsalicylic acid concentration after administration of Genuine Bayer Aspirin Tablet at fasting condition in human. To be noted: plasma, po, 650 mg. The class given is ADME, organism-based. Details: dietary status Fasting, dose 650 mg, dosed compound id 2.46814e+06, dosed compound name Acetylsalicylic acid, regimen Single, route oral, sampling time 24 h, study doses 325/650 mg.

A short description of data set [5]: (§5) Mean terminal elimination half-life of acetylsalicylic acid concentration after administration of Genuine Bayer Aspirin Tablet at fasting condition in human. Conditions: plasma, po, 650 mg. The class given is ADME, organism-based. Set-up: dietary status Fasting, dose 650 mg, dosed compound id 2.46814e+06, dosed compound name Acetylsalicylic acid, regimen Single, route oral, sampling time 24 h, study doses 325/650 mg.

Data set [6] in a line: as §2. The class given is ADME, organism-based. Set-up: dietary status Fasting, dose 650 mg, dosed compound id 2.46814e+06, dosed compound name Acetylsalicylic acid, regimen Single, route oral, sampling time 24 h, study doses 325/650 mg. Conditions: plasma, po, 650 mg.
Data set [7] in a line: as §3. The class given is ADME, organism-based. Set-up: dietary status Fasting, dose 650 mg, dosed compound id 2.46814e+06, dosed compound name Acetylsalicylic acid, regimen Single, route oral, sampling time 24 h, study doses 325/650 mg. To be noted: plasma, po, 650 mg.
Data set [8] is described as follows: (§6) Mean Tlag of acetylsalicylic acid concentration after administration of Genuine Bayer Aspirin Tablet at fasting condition in human. The class given is ADME, organism-based, Plasma. Set-up: dietary status Fasting, dose 650 mg, dosed compound id 2.46814e+06, dosed compound name Acetylsalicylic acid, regimen Single, route oral, sampling time 24 h, study doses 325/650 mg. Conditions: in vivo, po.

The nature of data set [9]: as §1. Set-up: time infinity, dietary status Fasting, dose 650 mg, dosed compound id 2.46814e+06, dosed compound name Acetylsalicylic acid, regimen Single, route oral, sampling time 24 h, study doses 325/650 mg. The class given is ADME, organism-based. Conditions: plasma, po, 650 mg, read-out: AUCinfinity (converted).
Data set [10] in a line: as §4. Set-up: dietary status Fasting, dose 325 mg, dosed compound id 2.46814e+06, dosed compound name Acetylsalicylic acid, regimen Single, route oral, sampling time 24 h, study doses 325/650 mg. To be noted: plasma, po, 325 mg. Type of data set: ADME, organism-based.
Data set [11] can be described thus: as §6. The class given is ADME, organism-based, Plasma. Conditions: in vivo, po. Details: dietary status Fasting, dose 325 mg, dosed compound id 2.46814e+06, dosed compound name Acetylsalicylic acid, regimen Single, route oral, sampling time 24 h, study doses 325/650 mg.
Data set [12] can be described thus: as §5. Type of data set: ADME, organism-based. Set-up: dietary status Fasting, dose 325 mg, dosed compound id 2.46814e+06, dosed compound name Acetylsalicylic acid, regimen Single, route oral, sampling time 24 h, study doses 325/650 mg. Conditions: plasma, po, 325 mg.

SMILES strings stand for the structures.

Turning to `CC(=O)Oc1ccccc1C(=O)O` [ASPIRIN], the AUC(0-inf) in data set [1] is 3830 ng·h/mL; in data set [9], 7280 ng·h/mL. In addition, the Cmax in data set [2] came to 2590 ng/mL; in [6], 5100 ng/mL. Besides, the time of peak concentration (Tmax) in data set [3] is 68 min; in data set [7], 40 min. Also, the results for the AUC(0-t) in data set [4] and in data set [10] were 6880 ng·h/mL and 3520 ng·h/mL, respectively. The half-life in data set [5] was 55 min; in data set [12], 31 min. Also, the Tlag is 1 min in [8] and 2 min in data set [11].
